Reference: patent publication US11149036B2, “3-(1H-pyrazol-4-yl)pyridine allosteric modulators of the M4 muscarinic acetylcholine receptor” (Merck Sharp & Dohme Corp., priority 2017, dated 2021)

These compounds were tested against T1, human M4 muscarinic acetylcholine receptor (Homo sapiens, UniProt P08173) (assay: human FLIPR-based M4 PAM assay (CHO-K1 cells with human M4 receptor and Gaqi5, calcium dye fluorescence)). Conditions: inflection point (IP) of dose response curve, acetylcholine added at 20% of maximum response, read-out: M4 FLIPPR Hu IP.
T1 construct: expressed in transfected cells; host or cells: CHO-K1
T1 sequence (P08173 1-479): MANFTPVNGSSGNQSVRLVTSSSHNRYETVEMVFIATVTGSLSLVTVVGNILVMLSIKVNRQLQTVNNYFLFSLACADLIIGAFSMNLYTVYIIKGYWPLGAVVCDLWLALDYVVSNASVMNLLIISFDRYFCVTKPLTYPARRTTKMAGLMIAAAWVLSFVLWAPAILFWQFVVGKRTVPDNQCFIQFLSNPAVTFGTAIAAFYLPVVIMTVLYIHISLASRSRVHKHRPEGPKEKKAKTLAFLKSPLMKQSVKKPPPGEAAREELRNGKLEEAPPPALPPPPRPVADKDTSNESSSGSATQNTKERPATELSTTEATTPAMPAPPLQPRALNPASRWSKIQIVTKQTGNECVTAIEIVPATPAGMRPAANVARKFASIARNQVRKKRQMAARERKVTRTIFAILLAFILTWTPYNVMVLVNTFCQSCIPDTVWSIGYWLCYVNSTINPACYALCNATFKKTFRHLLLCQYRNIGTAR
Assay type: cell-based
Description: (§1) In a typical experiment the M4 muscarinic acetylcholine receptor modulating activity of the compounds of the present invention was determined in accordance with the following experimental method. CHO-K1 cells stably transfected with human M4 receptor and chimeric G-protein Gaqi5 (Coward P, et al., Analytical Biochemistry, 270:242-248 (1999)) are thawed from liquid N2 storage, resuspended in growth medium, plated in black, clear bottom 384 well plates, and incubated 16-20 hours at 37° C., 5% CO2. On the day of assay, growth medium is removed, the cells are washed 2 times with wash buffer, and cells are incubated in dye loading buffer at 37° C., 5% CO2 for ˜1 hour. Following dye loading the cell plates are placed in a FLIPR Tetra instrument and while monitoring dye fluorescence (excitation 470-495 […]), 10 uL of test substance at increasing concentrations is added, and fluorescence values are recorded for 4 min. Next, 10 uL of acetylcholine is added (final concentration calculated so as to achieve 20% of the maximum acetycholine response), and the fluorescence reading is continued for 3.5 min. In some cases, a third addition of acetylcholine (final concentration calculated to achieve 70% of the maximal acetylcholine response) is performed. The resulting dose response curves are fit to a 4 parameter logistic equation and the final result is determined as the inflection point (IP) of the curve
as §1, with “CHO-K1” for “In a typical experiment the M4 muscarinic acetylcholine receptor modulating activity of the compounds of the present invention was determined in accordance with the following experimental method. CHO-K1”, “Gaqi5” for “Gaqi5 (Coward P, et al., Analytical Biochemistry, 270:242-248 (1999))”, “performed.” for “performed. The resulting dose response curves are fit to a 4 parameter logistic equation and the final result is determined as the inflection point (IP) of the curve”

**Q.** Which EC50 does the source give for CC1(C)NC(=O)c2cc(-c3nc(C#N)ccc3-c3cnn(CC4(F)CCCC4)c3)ccc21 [Example 46, 6-(1,1-dimethyl-3-oxoisoindolin-5-yl)-5-(1-((1-fluorocyclopentyl)methyl)-1H-pyrazol-4-yl)picolinonitrile49] here?
**A.** 102 nM

**Q.** N#Cc1ccc(-c2cnn(CC3(F)CCCC3)c2)c(-c2cnc3c(c2)C(=O)N(CCF)C3)n1 [Example 47, 5-(1-((1-fluorocyclopentyl)methyl)-1H-pyrazol-4-yl)-6-(6-(2-fluoroethyl)-5-oxo-6,7-dihydro-5H-pyrrolo[3,4-b]pyridin-3-yl)picolinonitrile] was tested. Which EC50 did it give?
**A.** 56 nM

**Q.** How did the EC50 turn out when Cn1cc2ccc(-c3nc(C#N)ccc3-c3cnn(CC4(F)CCCC4)c3)cc2n1 [Example 48, 5-(1-((1-fluorocyclopentyl)methyl)-1H-pyrazol-4-yl)-6-(2-methyl-2H-indazol-6-yl)picolinonitrile] was run?
**A.** 41 nM

**Q.** Cc1nc2cc(-c3nc(C#N)ccc3-c3cnn(CC4(F)CCCC4)c3)ccc2o1 [Example 49, 5-(1-((1-fluorocyclopentyl)methyl)-1H-pyrazol-4-yl)-6-(2-methylbenzo[d]oxazol-5-yl)picolinonitrile] was tested. Which EC50 did it give?
**A.** 107 nM

**Q.** Which EC50 does the source give for N#Cc1ccc(-c2cnn(CC3(F)CCCC3)c2)c(-c2ccn3ccnc3c2)n1 [Example 50, 5-(1-((1-fluorocyclopentyl)methyl)-1H-pyrazol-4-yl)-6-(imidazo[1,2-a]pyridin-7-yl)picolinonitrile] here?
**A.** 27 nM

**Q.** Which EC50 does the source give for N#Cc1ccc(-c2cnn(CC3(F)CCCC3)c2)c(-c2ccn3cc(C(F)(F)F)nc3c2)n1 [Example 51, 5-(1-((1-fluorocyclopentyl)methyl)-1H-pyrazol-4-yl)-6-(2-(trifluoromethyl)imidazo [1,2-a]pyridin-7-yl)picolinonitrile] here?
**A.** 22 nM

**Q.** With N#Cc1ccc(-c2cnn(CC3(F)CCCC3)c2)c(-c2ccn3cc(Cl)nc3c2)n1 [Example 52, 6-(2-chloroimidazol[1,2-a]pyridin-7-yl)-5-(1-((1-fluorocyclopentyl)methyl)-1H-pyrazol-4-yl)picolinonitrile] as the compound, how does the EC50 read?
**A.** 10 nM

**Q.** With N#Cc1ccc(-c2cnn(CC3(F)CCCC3)c2)c(-c2cnc3oc(C4CC4)nc3c2)n1 [Example 53, 6-(2-cyclopropyloxazolo[5,4-b]pyridin-6-yl)-5-(1-((1-fluorocyclopentyl)methyl)-1H-pyrazol-4-yl)picolinonitrile] as the compound, how does the EC50 read?
**A.** 76 nM

**Q.** With N#Cc1ccc(-c2cnn(CC3(F)CCCC3)c2)c(-c2ccn3cc(C4CC4)nc3c2)n1 [Example 54, 6-(2-cyclopropylimidazo[1,2-a]pyridin-7-yl)-5-(1-((1-fluorocyclopentyl)methyl)-1H-pyrazol-4-yl)picolinonitrile] as the compound, how does the EC50 read?
**A.** 36 nM

**Q.** Which EC50 does the source give for N#Cc1ccc(-c2cnn(CC3(F)CCCC3)c2)c(-c2cnc3c(c2)C(=O)N(CC2CC2)C3)n1 [Example 55, 6-(6-(cyclopropylmethyl)-5-oxo-6,7-dihydro-5H-pyrrolo[3,4-b]pyridin-3-yl)-5-(1-((1-fluorocyclopentyl)methyl)-1H-pyrazol-4-yl)picolinonitrile] here?
**A.** 35 nM

**Q.** Which EC50 does the source give for Cn1nnc2cc(-c3nc(C#N)ccc3-c3cnn(CC4(F)CCCC4)c3)ccc21 [Example 56, 5-(1-((1-fluorocyclopentyl)methyl)-1H-pyrazol-4-yl)-6-(1-methyl-1H-benzo[1,2,3]triazol-5-yl)picolinonitrile] here?
**A.** 41 nM

**Q.** With CCc1cn2ccc(-c3nc(C#N)ccc3-c3cnn(CC4(F)CCCC4)c3)cc2n1 [Example 57, 6-(2-ethylimidazo[1,2-a]pyridin-7-yl)-5-(1-((1-fluorocyclopentyl)methyl)-1H-pyrazol-4-yl)picolinonitrile] as the compound, how does the EC50 read?
**A.** 16 nM

**Q.** How did the EC50 turn out when N#Cc1ccc(-c2cnn(CC3(F)CCCC3)c2)c(-c2ccn3cc(C(F)F)nc3c2)n1 [Example 58, 6-(2-(difluoromethyl)imidazo [1,2-a]pyridin-7-yl)-5-(1-((1-fluorocyclopentyl)methyl)-1H-pyrazol-4-yl)picolinonitrile] was run?
**A.** 15 nM
